The subject of data set [1] is mouse hind-limb ischemia model. Briefly: Laser Doppler hind-limb blood flow, chronic treatment in hind-limb ischemia model. In kind it is in vivo, mouse (C57BL/6J). The text has this:
(§1) Animals and Reagents. Unless otherwise stated, male wild type (C57BL/6J) mice weighing 20-25 gm and age 2-3 months were used. The mice were bred and housed at the Association for Assessment and Accreditation of Laboratory Animal Care, International-accredited LSUHSC-Shreveport animal resource facility and maintained according to the National Research Council's Guide for Care and Use of Laboratory Animals. All experimental protocols were approved by the LSU Institutional Animal Care and Use Committee. Sodium nitrite, sodium nitrate, phosphate buffered saline (PBS), and all other chemicals were purchased from Sigma Chemical (St. Louis, Mo.). Hind-Limb Ischemia Model. Hind limb ischemia was induced by ligating the left common femoral artery proximal to origin of profunda femoris artery according to Senthilkumar, A., Smith, R. D., Khitha, J., Arora, N., Veerareddy, S., Langston, W., Chidlow, J. H., Jr., Barlow, S. C., Teng, X., Patel, R. P., et al. 2007. Arterioscler Thromb Vase Biol 27:1947-1954. Mice were anesthetized with intraperitoneal injection of ketamine (100 mg/kg) and xylazine (8 mg/kg); surgery was performed […] aseptic conditions. The common femoral vein and femoral nerve were dissected away from the artery. Two ligatures were placed in the common femoral artery proximal to the profunda femoris artery and then transected between the two ligations. The incision was then closed and the ligation was immediately verified by laser Doppler measurement of tissue blood flow.
(§2) Laser Doppler measurements of tissue blood flow. The Vasamedics Laserflo BPM2 deep tissue penetrating laser doppler device was used to measure hind limb blood flow. The tip of laser probe was placed with stable positioning using a probe stand over the medial calf muscle of mice. Readings were recorded in ml of blood flow per 100 g tissue per minute from non-ischemic and ischemic limbs. Daily blood flow measurements were taken before the first nitrite or nitrate injection of a 24 hour period in order to obtain representative steady state changes in perfusion. Percent change in tissue blood flow was determined by dividing ischemic limb blood flow by non-ischemic limb blood flow and multiplied by 100. In a separate series of experiments, blood flow was also measured within 30 seconds after nitrite or nitrate administration to assess acute changes in blood flow.
We examined the effect of a range of sodium nitrite doses on ischemic tissue blood flow in the mouse hind-limb ischemia model described in Example 1. Sodium nitrite was administered via intraperitoneal injection twice a day in a dose range of 8.25-3,300 μg/kg; 15 mice were used per treatment group. Blood flow was measured according the laser Doppler method of Example 1. Changes in ischemic tissue perfusion were determined by measuring ischemic limb blood flow which was divided by the respective contra-lateral non-ischemic limb blood flow to calculate a percent change for each animal.

Data set [2] relates to mouse hind-limb ischemia model. Briefly: Vascular density (CD31/DAPI) of gastrocnemius muscle tissue. In kind it is in vivo, mouse (C57BL/6J).
From the text: as §1
Arterioscler Thromb Vase Biol 27:1947-1954.

Data set [3] deals with endothelial cell proliferation in ischemic gastrocnemicus tissues. In words: Endothelial cell proliferation (Ki67 staining) in gastrocnemius tissue. In kind it is in vivo, mouse (C57BL/6J). The settings on record: day 3.
From the text: as §1
The effect of sodium nitrite on endothelial cell proliferation in ischemic gastrocnemicus tissues was analyzed in the hind-limb ischemia model of Example 1.

Data set [4] has as its system mouse hind-limb ischemia model. In kind it is in vivo, mouse (C57BL/6J). As for the experimental part:
as §2
Stimulation of angiogenesis alone during chronic ischemia is generally insufficient for restoring tissue perfusion. Increased arteriogenesis through the recruitment and differentiation of smaller arterioles is important to supply newly formed microvasculature. Moreover, an acute increase in vascular shear stress due to increased blood flow is a critical mediator of arteriogenesis. We examined the effect of 165 μg/kg sodium nitrite on acute changes (30 sec) in ischemic and nonischemic tissue perfusion according to the method in Example 1. Ten mice were used per treatment group.

Data set [5] has as its system ischemic hind limb of C57BL/6J mice. The note with it: 165 μg/kg single I.P. bolus 45 minutes after ligation; 7 day period. How it is done: Permanent femoral artery ligation was performed on the left hind limb of C57BL/6J mice (n=3 per treatment group) according to the method in Example 1. A single bolus injection of either PBS or sodium nitrite (165 μg/kg) was given I.P. 45 minutes after completing the ligation. Blood flow recovery was monitored every other day over a 7 day period to evaluate the efficacy of single bolus injection therapy. […] “Day 0 Pre” on the x-axis refers to blood flow on the day of ligation before the ligation was performed; “Day 0 Post” on the x-axis refers to blood flow on the day of ligation after the ligation was performed.

Another data set relates to cGMP. The settings on record: 165 μg/kg; day 3 or 7. How it is done:
(§3) Measurement of Nitrite, NO Metabolite, Tissue cGMP, and eNOS Protein Levels. Nitrite and tissue NO metabolite levels tissue (nitrosothiol, C- or N-nitroso compounds, or iron-nitrosyl proteins which are collectively referred to SNO+XNO) whether were measured using chemiluminescence techniques according to Lang, J. D., Jr., Teng, X., Chumley, P., Crawford, J. H., Isbell, T. S., Chacko, B. K., Liu, Y., Jhala, N., Crowe, D. R., Smith, A. B., et al. 2007. J Clin Invest. 117:2583-2591. Gastrocnemius muscle tissue cGMP levels were determined using the cGMP ELISA from Cayman Chemical (Ann Arbor, Mich.) according to the manufacturer's directions. Specimens were collected within 2 min after injection of either PBS or sodium nitrite. Total eNOS protein levels in hind-limb tissue were determined by Western blot analysis.

Data set [6] deals with mouse hind-limb ischemia model. How it is done: Vascular casting. Hind limb vascular casting of ischemic limbs was performed using Microfil silicone injection MV120. Before vascular casting, papaverine (5 ng/ml) and adenosine (1 mg/ml) were given intravenously to increase perfusion of the casting resin. Briefly, the abdominal aorta proximal to the femoral artery bifurcation was ligated with 5.0 silk suture material and cannulated caudal to the ligation using PESO tubing held in place with a silk ligature. 400 μl of Microfil was infused into the aortic catheter and allowed to set in situ for 16 hours at 4° C. Hind limb muscle tissue was cleared by incubating tissues in graded glycerol solutions of 40%, 60%, 80%, and 100% for 24 hours each. Vascular casts were subsequently photographed using a stereomicroscope.
To further evaluate arteriogenesis activity, we performed hind-limb ligations distal to the profunda femoris and proximal to the knee to more easily distinguish changes in the arterial supply. […] Arterial casts were made according to the method in Example 1.

For a further data set, the system named is eNOS protein. The settings on record: 165 μg/kg. As for the experimental part:
as §3
(§4) Analysis of blood and tissue nitrite levels in nitrate-treated and control animals was performed according to the method in Example 1.

How the values of data set [7] were obtained:
as §3, §4

For a further data set, the system named is SNO+XNO. The note with it: 165 μg/kg. How it is done: as §3
The effect of nitrite treatment on levels of the NO metabolites, SNO and XNO was measure according to the method in Example 1. Twenty mice were used per treatment group.

The test system of data set [8] is ischemic hind limb of Db/Db diabetic mice. How it is done:
We evaluated the effect of sodium nitrite treatment on ischemic hind limb blood flow in a diabetic mouse model. Permanent femoral artery ligation was performed on the left hind limb of Db/Db diabetic mice (n=5 per treatment group) according to the methods in Examples 1 and 2, except that the mice were anesthetized with 2% inhaled isofluorane. […] Blood flow recovery was monitored throughout the study using deep tissue penetrating laser Doppler according to the method in Example 1.

The subject of data set [9] is ischemic hind limb of C57BL/6J mice. The settings on record: 165 μg/kg I.P. b.i.d. started day 5 post-ligation. As for the experimental part:
We also evaluated the effect of delaying chronic sodium nitrite treatment on restoration of hind limb blood flow. Permanent femoral artery ligation was performed on the left hind limb of C57BL/6J mice (n=6 per treatment group) as described in Example 1. […] Blood flow recovery was monitored throughout the study using deep tissue penetrating laser Doppler as described in Example 1. […] “Day 0 Pre” on the x-axis refers to blood flow on the day of ligation before the ligation was performed; “Day 0 Post” on the x-axis refers to blood flow on the day of ligation after the ligation was performed.

For data set [10], the system named is excisional wounds in C57BL/6J mice. The settings on record: for percent wound surface remaining vs PBS-treated controls: 165 μg/kg I.P. b.i.d. As for the experimental part: Full thickness excisional wounds were created using a 4 mm punch biopsy device. C57BL/6J mice were anesthetized according to the method in Example 1. Wounds were created by pinching the loose skin and punching a half circle biopsy to obtain a uniform 4 mm diameter wound (n=4 per treatment group). […] Wound diameter was measured using digital calipers and plotted as the percent wound surface area remaining at each successive day.

Read-outs that look alike come from different tables or passages of the source. Some results are limits rather than exact numbers.

Regarding `CC1(C)N([O])C(c2ccc(C(=O)O)cc2)=[N+]([O-])C1(C)C` [carboxy PTIO, 2-(4-Carboxyphenyl)-4,4,5,5-tetramethylimidazoline-1-oxyl-3-oxide, reference compound], the “effect of NO scavenger on ability of sodium nitrite to restore ischemic limb blood flow” value in data set [1] (carboxy PTIO 1 mg/kg daily plus sodium nitrite 165 μg/kg) is recorded as “significantly attenuated”. Also, the “effect of cPTIO cotreatment on nitrite augmentation of angiogenesis in ischemic hind limbs” value in data set [2] (cPTIO plus sodium nitrite 165 μg/kg, days 3 and 7) is “prevented nitrite augmentation of angiogenesis”. Also, in data set [3] (cPTIO plus sodium nitrite, ischemic tissue), the “effect of cPTIO on nitrite-induced increase in Ki67 to CD31 colocalization” value was “blocked”. The “effect of carboxy PTIO on nitrite-induced increase in Ki67 nuclear localization” value in [3] (carboxy PTIO plus sodium nitrite, ischemic tissue) is “blocked”. Also, in [4] (mouse, in vivo), the “effect of cPTIO on nitrite-dependent acute tissue blood flow change” value is “significantly blunted”.
As for `O=NO` [sodium nitrite], the “ischemic hind limb blood flow recovery after single bolus” value in data set [5] was “did not restore”. The “temporal efficacy on ischemic blood flow compared to higher and lower doses” value in data set [1] (165 μg/kg i.p. twice a day) is recorded as “optimal temporal efficacy”. Also, the “hind limb blood flow in the nonischemic limbs” value in data set [1] (165 μg/kg i.p., nonischemic limb) is on record as “neither PBS nor sodium nitrite altered”. Besides, in [1] (165 μg/kg injection), the “blood flow after injection in hind limbs ischemic for 24 h” value is “enhanced blood flow”. Also, the “percentage blood flow in ischemic hind limbs” value in data set [1] (8.25, 16.5, 165 and 3,300 μg/kg i.p. twice a day, by day 3 post ligation, progressively increased by day 7, vs PBS) is reported as “increased the percentage blood flow”. In data set [2] (165 μg/kg, day 7, compared to PBS or sodium nitrate controls), the “endothelial staining of CD31 in ischemic muscle tissue” value was “much more abundant”. In addition, in data set [2] (165 μg/kg, day 7, nonischemic gastrocnemius), the “nonischemic tissue vascular density” value is “did not significantly alter”. Moreover, the “vascular density of ischemic gastrocnemius muscle” value in [2] (165 μg/kg, days 3 and 7, compared to PBS or sodium nitrate) was “significantly increased”. Moreover, the “augmentation of ischemic tissue vascular density, high dose vs low dose” value in [2] (3,300 μg/kg compared to 165 μg/kg) is “less potent”. The “Ki67 nuclear localization (colocalization with DAPI)” value in data set [3] (165 μg/kg, ischemic tissue) is reported as “significantly increased”; in [3] (165 μg/kg, non-ischemic tissue), “but not non-ischemic tissues”. Further, in [3] (165 μg/kg, ischemic tissue), the “Ki67 to CD31 colocalization” value is on record as “significantly increased”. In addition, the “tissue cGMP levels” value in the data set with cGMP was “neither 165 μg/kg sodium nitrite nor PBS significantly altered”. Also, the “collateral vessels in arterial cast of ischemic limb” value in data set [6] (day 7, vascular casting) was “Numerous collateral vessels”. Moreover, in data set [6] (ligation distal to profunda femoris, vs PBS-treated controls), the “number of arterial branch points” value was “significantly greater”. For the same compound, the eNOS protein expression result in the data set on eNOS protein (day 3, ischemic hind-limb tissue) is given as “significantly decreased”; in the data set with eNOS protein (day 3, nonischemic hind-limb tissue), “without altering expression”; with eNOS protein (day 7, ischemic tissue), “no effect”; in the data set with eNOS protein (day 7, nonischemic tissue), “reduced”. The “blood levels of nitrite” value in data set [7] (165 μg/kg chronic therapy, days 3 and 7) is “significantly decreased over time”. Besides, the tissue nitrite levels entry in data set [7] (165 μg/kg, day 3, ischemic tissue) was “significantly increased”. Besides, in [7] (165 μg/kg, day 7), the “tissue nitrite levels, nitrite-treated vs PBS-treated” value was “did not differ significantly”. The “acute blood flow change under chronic nitrite therapy” value in data set [4] (165 μg/kg, days 3 and 7) is “lesser, yet still significant, increase”. The “acute enhancement of ischemic tissue blood flow” value in [4] (mouse, in vivo) is listed as 92.3±18%. Further, the “duration of increased blood flow after injection” value in data set [4] (mouse, in vivo) is reported as greater than 10 min. Besides, the “tissue SNO+XNO levels” value in the data set on SNO+XNO (day 3) was “Neither sodium nitrite (165 μg/kg) nor PBS significantly altered”. Besides, in the data set on SNO+XNO (day 7, compared to PBS), the “SNO+XNO levels in ischemic tissue” value is reported as “significantly increased”. Moreover, in data set [8] (165 μg/kg I.P. b.i.d. started post-ligation), the “ischemic hind-limb blood flow recovery in diabetic mice” value was “restored”. In addition, in [8] (165 μg/kg I.P. b.i.d., all time points analyzed), the “blood flow in ischemic hind limbs vs PBS-treated controls” value is “significantly greater”. In addition, the “blood flow in ischemic hind limbs relative to preligation” value in data set [8] (165 μg/kg I.P. b.i.d., by the end of the study) was “approached preligation levels”. The “ischemic hind limb blood flow recovery with delayed therapy” value in data set [9] is listed as “restored”. For the same compound, the excision wound healing result in [10] (165 μg/kg I.P. b.i.d. from wounding, 4 mm wound) is reported as “enhanced”. Moreover, the “percent wound surface remaining vs PBS-treated controls” value is “significantly less” in data set [10] (first six days of the study) and “lower” in data set [10] (remaining four days).
Regarding `O=[N+]([O-])[O-].[Na+]` [sodium nitrate, reference compound], in [1] (lowest dose 8.25 μg/kg, by days 5 and 7), the “ischemic limb blood flow” value was “augmented ischemic limb blood flow”.

The record behind these values is patent US10864229B2, “Use of nitrite salts in chronic ischemia” (priority 2007, dated 2020).
